Series [1] can be described thus: Inhibition of MRP1 in human 2008/MRP1 cells assessed as reversal of doxorubicin resistance by measuring doxorubicin IC50 at 1 uM after 5 days by Cell Titer-Glo luminescence assay. A general note: Cellular ATP, detected with luciferase, serves as a proxy for viable cell number.
Series [2] concerns the target ATP-dependent translocase ABCB1 (Homo sapiens, UniProt P08183). The experiment in a line: Inhibition of P-glycoprotein in human LCC6MDR cells assessed as reversal fold by measuring reduction in paclitaxel by measuring paclitaxel IC50 at 1 uM after 5 days by Cell Titer-Glo luminescence assay.

The structures appear in SMILES notation.

Chain of ATP-dependent translocase ABCB1 (P08183 whole entry): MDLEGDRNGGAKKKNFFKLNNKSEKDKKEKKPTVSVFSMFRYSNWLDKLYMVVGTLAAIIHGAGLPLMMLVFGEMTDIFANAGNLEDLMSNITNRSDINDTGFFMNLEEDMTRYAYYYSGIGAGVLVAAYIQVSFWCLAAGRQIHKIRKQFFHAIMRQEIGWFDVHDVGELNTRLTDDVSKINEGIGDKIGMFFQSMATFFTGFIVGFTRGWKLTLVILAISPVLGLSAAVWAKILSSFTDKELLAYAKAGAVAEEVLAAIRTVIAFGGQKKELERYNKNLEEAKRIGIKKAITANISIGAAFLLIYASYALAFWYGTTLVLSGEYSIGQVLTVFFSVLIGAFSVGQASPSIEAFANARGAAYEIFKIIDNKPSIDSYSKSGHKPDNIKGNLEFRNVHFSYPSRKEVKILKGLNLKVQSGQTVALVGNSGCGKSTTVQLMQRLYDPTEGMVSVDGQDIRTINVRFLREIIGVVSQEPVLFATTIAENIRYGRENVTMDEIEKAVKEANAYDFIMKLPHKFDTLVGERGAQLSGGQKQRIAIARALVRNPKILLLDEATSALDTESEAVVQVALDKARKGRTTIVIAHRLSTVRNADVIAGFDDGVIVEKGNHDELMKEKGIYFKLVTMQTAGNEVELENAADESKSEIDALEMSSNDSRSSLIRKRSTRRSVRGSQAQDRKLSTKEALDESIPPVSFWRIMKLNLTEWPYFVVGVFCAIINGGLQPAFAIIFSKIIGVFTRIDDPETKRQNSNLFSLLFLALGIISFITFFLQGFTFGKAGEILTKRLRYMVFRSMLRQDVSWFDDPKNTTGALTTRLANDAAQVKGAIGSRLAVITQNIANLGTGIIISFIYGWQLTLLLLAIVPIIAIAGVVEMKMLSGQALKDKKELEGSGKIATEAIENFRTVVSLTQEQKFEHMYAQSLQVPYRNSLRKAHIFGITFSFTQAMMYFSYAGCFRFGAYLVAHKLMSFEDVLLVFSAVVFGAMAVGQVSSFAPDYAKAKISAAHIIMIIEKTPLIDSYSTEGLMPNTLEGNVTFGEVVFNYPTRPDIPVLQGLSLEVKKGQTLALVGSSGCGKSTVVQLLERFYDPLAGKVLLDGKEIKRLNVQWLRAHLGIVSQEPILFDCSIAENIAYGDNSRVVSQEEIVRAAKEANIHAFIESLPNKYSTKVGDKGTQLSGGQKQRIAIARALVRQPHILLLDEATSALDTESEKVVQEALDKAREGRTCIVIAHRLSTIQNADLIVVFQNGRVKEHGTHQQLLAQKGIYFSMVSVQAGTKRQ

As usually defined, the IC50 is the concentration that gives 50% inhibition. With `COc1cc(OC)c2c(c1)O[C@H](c1ccc(OC)c(OC)c1)[C@@H](OC(=O)c1ccc(F)c(NC(=O)c3cc(OC)c(OC)c(OC)c3)c1)C2`, the figures for the IC50 in series [1] and in series [2] were 354 nM and 1.8 nM, respectively.
As to `COc1cc(OC)c2c(c1)O[C@H](c1ccc(OC)c(OC)c1)[C@H](OC(=O)c1ccc(F)c(NC(=O)c3cc(OC)c(OC)c(OC)c3)c1)C2`, the IC50 in series [1] turned out to be 341 nM; in series [2] it was 2.2 nM.
